Measured values as given in patent US12185723B2, “Herbicidally active 3-phenylisoxazoline-5-carboxamides of s-containing cyclopentenylcarboxylic esters” (Bayer Aktiengesellschaft, priority 2019, dated 2025).

Key:
Format in all cases: in vivo
[1] = test system: Veronica persica; assay: Post-emergence herbicidal action against VERPE
Summary of the method: (§1)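 Post-emergence application onto green parts at the one-leaf stage, 2 to 3 weeks after sowing in sandy loam. Spray carried 0.5% additive at a water rate of 600 l/ha. Percent activity assessed by eye at about 3 weeks, where 100% means plants died and 0% matches controls.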

[2] = test system: Alopecurus myosuroides; assay: Post-emergence herbicidal action against ALOMY; conditions: visual rating about 3 weeks after treatment
Summary of the method: as §1

[3] = test system: Abutilon theophrasti; assay: Post-emergence herbicidal action against ABUTH; conditions: visual rating about 3 weeks after treatment
Summary of the method: as §1

[4] = test system: Viola tricolor; assay: Post-emergence herbicidal action against VIOTR
Description: (§2) Post-Emergence Herbicidal Action Against Harmful Plants and Crop Plant Compatibility Seeds of monocotyledonous and dicotyledonous weeds and crop plants are placed in sandy loam in plastic or wood-fibre pots, covered with soil and cultivated in a greenhouse under controlled growth conditions. 2 to 3 weeks after sowing, the test plants are treated at the one-leaf stage. The compounds of the invention, formulated in the form of wettable powders (WP) or as emulsion concentrates (EC), are then sprayed onto the green parts of the plants as aqueous suspension or emulsion with addition of 0.5% additive at a water application rate of 600 l/ha (converted). After the test plants have been kept in the greenhouse under optimum growth conditions for about 3 weeks, the activity of the preparations is rated visually in comparison to untreated controls. For example, 100% activity=the plants have died, 0% activity=like control plants. [table]

[5] = test system: Matricaria inodora; assay: Post-emergence herbicidal action against MATIN
Description: as §2

[6] = test system: Stellaria media; assay: Post-emergence herbicidal action against STEME
Description: as §2

[7] = test system: Avena fatua; assay: Post-emergence herbicidal action against AVEFA; conditions: visual rating about 3 weeks after treatment
Summary of the method: as §1

[8] = test system: Pharbitis purpurea; assay: Post-emergence herbicidal action against PHBPU
Summary of the method: as §1

[9] = test system: Lolium rigidum; assay: Post-emergence herbicidal action against LOLRI; conditions: visual rating about 3 weeks after treatment
Summary of the method: as §1

[10] = test system: Hordeum murinum; assay: Post-emergence herbicidal action against HORMU
Description: as §2

[11] = test system: Polygonum convolvulus; assay: Post-emergence herbicidal action against POLCO
Summary of the method: as §1

[12] = test system: DIGSA; assay: Post-emergence herbicidal action against DIGSA; conditions: visual rating about 3 weeks after treatment
Summary of the method: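 Greenhouse-grown plants sprayed at one-leaf stage (2–3 weeks after sowing) with WP or EC formulations as aqueous suspension/emulsion plus 0.5% additive, 600 l/ha water. Activity rated visually about 3 weeks later versus untreated controls, 100% = plants dead, 0% = like controls.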

[13] = test system: Echinochloa crus-galli; assay: Post-emergence herbicidal action against ECHCG; conditions: visual rating about 3 weeks after treatment
Summary of the method: as §1

[14] = test system: Setaria viridis; assay: Post-emergence herbicidal action against SETVI; conditions: visual rating about 3 weeks after treatment
Summary of the method: as §1

[15] = test system: Amaranthus retroflexus; assay: Post-emergence herbicidal action against AMARE
Summary of the method: as §1

[16] = 80 g a.i./ha, visual rating about 3 weeks after treatment

| SMILES | Herbicidal action against [%] VERPE ([1]; 20 g a.i./ha) [%] | Herbicidal action against [%] VERPE ([1]; 80 g a.i./ha) [%] | Herbicidal action against [%] ALOMY ([2]; 80 g a.i./ha) [%] | Herbicidal action against [%] VIOTR ([4]; 20 g a.i./ha) [%] | Herbicidal action against [%] MATIN [5, 16] [%] | Herbicidal action against [%] STEME ([6]; 20 g a.i./ha) [%] | Herbicidal action against [%] STEME ([6]; 80 g a.i./ha) [%] | Herbicidal action against [%] AVEFA ([7]; 80 g a.i./ha) [%] | Herbicidal action against [%] LOLRI ([9]; 20 g a.i./ha) [%] | Herbicidal action against [%] LOLRI ([9]; 80 g a.i./ha) [%] | Herbicidal action against [%] ALOMY ([2]; 20 g a.i./ha) [%] | Herbicidal action against [%] HORMU ([10]; 20 g a.i./ha) [%] | Herbicidal action against [%] HORMU ([10]; 80 g a.i./ha) [%] | Herbicidal action against [%] DIGSA ([12]; 20 g a.i./ha) [%] | Herbicidal action against [%] DIGSA ([12]; 80 g a.i./ha) [%] | Herbicidal action against [%] AVEFA ([7]; 20 g a.i./ha) [%] | Herbicidal action against [%] ECHCG ([13]; 80 g a.i./ha) [%] | Herbicidal action against [%] SETVI ([14]; 20 g a.i./ha) [%] | Herbicidal action against [%] SETVI ([14]; 80 g a.i./ha) [%] | Herbicidal action against [%] AMARE [15, 16] [%] | further results |
| --- | --- | --- | --- | --- | --- | --- | --- | --- | --- | --- | --- | --- | --- | --- | --- | --- | --- | --- | --- | --- | --- |
| COC1(C(=O)NC2C=CC(C(=O)OCCSC)C2)CC(c2cccc(F)c2)=NO1 (mixture of isomers) [Example I-36] | 80 | 80 | 80 | 80 | 80 | 80 | 80 | 80 |  |  |  |  |  |  |  |  |  |  |  |  | Herbicidal action against [%] ABUTH ([3]; 80 g a.i./ha): 80%; Herbicidal action against [%] PHBPU ([8]; 20 g a.i./ha): 80%; Herbicidal action against [%] PHBPU ([8]; 80 g a.i./ha): 80% |
| CSCCOC(=O)C1C=CC(NC(=O)C2(C(F)(F)F)CC(c3cc(F)cc(C#N)c3)=NO2)C1 (mixture of isomers) [Example I-38] | 90 | 90 | 90 | 100 | 80 | 100 | 100 | 90 | 90 | 90 | 80 | 80 | 80 | 90 | 90 | 90 | 90 | 90 | 90 | 80 | Herbicidal action against [%] POLCO ([11]; 20 g a.i./ha): 90%; Herbicidal action against [%] POLCO ([11]; 80 g a.i./ha): 90%; Herbicidal action against [%] ABUTH ([3]; 20 g a.i./ha): 90%; Herbicidal action against [%] ABUTH ([3]; 80 g a.i./ha): 90%; Herbicidal action against [%] VIOTR ([4]; 80 g a.i./ha): 80%; Herbicidal action against [%] ECHCG ([13]; 20 g a.i./ha): 90%; Herbicidal action against [%] PHBPU ([8]; 80 g a.i./ha): 90%; Herbicidal action against [%] AMARE ([15]; 20 g a.i./ha): 80% |
| C=CC1(C(=O)NC2C=CC(C(=O)OCCSC)C2)CC(c2cc(C)cc(F)c2)=NO1 (mixture of isomers) [Example I-47] | 80 | 80 | 90 | 90 | 80 | 90 | 90 | 90 | 80 | 80 | 90 |  | 80 | 80 | 90 | 80 | 80 | 80 | 80 | 100 |  |
| CSCCOC(=O)C1C=CC(NC(=O)C2(C)CC(c3cc(Cl)cc(C#N)c3)=NO2)C1 (mixture of isomers) [Example I-49] | 80 | 90 | 100 | 90 | 80 | 90 | 90 | 90 | 90 | 90 | 90 | 80 | 80 | 80 | 90 | 90 | 80 |  | 80 | 100 | Herbicidal action against [%] ABUTH ([3]; 80 g a.i./ha): 80%; Herbicidal action against [%] VIOTR ([4]; 80 g a.i./ha): 80%; Herbicidal action against [%] PHBPU ([8]; 20 g a.i./ha): 80%; Herbicidal action against [%] AMARE ([15]; 20 g a.i./ha): 90% |
| CSCCOC(=O)C1C=CC(NC(=O)C2(C3CC3)CC(c3cc(F)cc(F)c3)=NO2)C1 (stereo not drawn) [Example I-28] | 90 | 90 | 90 | 90 | 90 | 90 | 90 | 90 | 90 | 90 | 90 | 90 | 90 | 90 | 90 | 90 | 90 | 90 | 90 | 80 | Herbicidal action against [%] POLCO ([11]; 20 g a.i./ha): 80%; Herbicidal action against [%] POLCO ([11]; 80 g a.i./ha): 90%; Herbicidal action against [%] ABUTH ([3]; 20 g a.i./ha): 90%; Herbicidal action against [%] ABUTH ([3]; 80 g a.i./ha): 90%; Herbicidal action against [%] VIOTR ([4]; 80 g a.i./ha): 80%; Herbicidal action against [%] MATIN ([5]; 20 g a.i./ha): 80%; Herbicidal action against [%] ECHCG ([13]; 20 g a.i./ha): 90%; Herbicidal action against [%] AMARE ([15]; 20 g a.i./ha): 80% |
| CSCCOC(=O)C1C=CC(NC(=O)C2(C)CC(c3cc(F)cc(Cl)c3)=NO2)C1 (stereo not drawn) [Example I-32] | 80 | 90 | 100 | 80 | 80 | 80 | 90 | 90 | 90 | 90 | 90 | 80 | 80 | 80 | 80 | 90 | 80 | 80 | 80 | 80 | Herbicidal action against [%] MATIN ([5]; 20 g a.i./ha): 80%; Herbicidal action against [%] ECHCG ([13]; 20 g a.i./ha): 80%; Herbicidal action against [%] PHBPU ([8]; 80 g a.i./ha): 80% |
| CSCCOC(=O)[C@@H]1C=C[C@H](NC(=O)C2(C(F)(F)F)CC(c3cc(F)cc(Cl)c3)=NO2)C1 (stereo partly drawn) [Example I-33, 2-methylsulfanylethyl (1S,4R)-4-[[3-(3-chloro-5-fluorophenyl)-5-(trifluoromethyl)-4H-isoxazole-5-carbonyl]amino]cyclopent-2-ene-1-carboxylate] | 80 | 80 | 90 | 90 | 80 | 90 | 90 | 100 | 90 | 90 | 80 | 80 | 90 | 80 | 80 | 80 | 80 | 80 | 80 |  | Herbicidal action against [%] ABUTH ([3]; 20 g a.i./ha): 80%; Herbicidal action against [%] ABUTH ([3]; 80 g a.i./ha): 80%; Herbicidal action against [%] MATIN ([5]; 20 g a.i./ha): 80% |
| CSCCOC(=O)C1=CC(NC(=O)C2(C)CC(c3cc(F)cc(F)c3)=NO2)CC1 (stereo not drawn) [Example I-51] | 90 | 90 | 90 | 90 | 80 | 90 | 90 | 100 | 90 | 100 | 90 | 90 | 90 | 80 | 80 | 100 | 90 | 80 | 80 | 80 | Herbicidal action against [%] POLCO ([11]; 80 g a.i./ha): 80%; Herbicidal action against [%] ECHCG ([13]; 20 g a.i./ha): 80%; Herbicidal action against [%] PHBPU ([8]; 80 g a.i./ha): 80% |
